In patent USRE49816E1, “Dipeptides as inhibitors of human immunoproteasomes” (CORNELL UNIVERSITY, priority 2014, dated 2024):
pIC50: −log10 of the molar value.

How the values were obtained:
[1] = tested on: proteasome inside the Karpas 1106p cells; test: Cell-based Proteasome-Glo assay after compound removal; set-up: species or system human; conditions: 4 hours, read-out: Proteasome-glo β5-IC50
Karpas 1106p cells [2] = test: Cytotoxicity (LD50) against Karpas lymphoma cells; assay type: cell-based, human; conditions: Table 4
Karpas 1106p cells [3] = test: Cytotoxicity (LD50) against Karpas lymphoma cells; assay type: cell-based, human; conditions: Table 3
From the text: Table 3 lists the inhibition kinetic parameters, selectivity index, and calculated log Ps of selected dipeptides.

hu c-20S β5c-subunit = hu c-20S β5c-subunit (Homo sapiens, UniProt P20618+P28074); test: N,C-capped dipeptides IC50, succ-LLVY-AMC fluorescence assay; assay type: biochemical
Method: (§1) All inhibitory assays for N,C capped dipeptides were performed in a black solid-bottom 96-well plate. In general, compound plates were prepared starting from 10 mM in 3× series dilution to 15 μM. 1 μl of DMSO stock was transferred to a black 96-well plate and 100 μL of reaction mixture were added 15 μM N-acetyl-Alanine-Asparagine-Tryptophan-7-amino-4-methylcourmarin (Ac-ANW-AMC) or 25 μM succinyl-Leucine-Leucine-Valine-Tyrosine-7-amino-4-methyl-courmarin (succ-LLVY-AMC), 0.4 nM hu i-20S β5i-subunit or 0.2 nM hu c-20S β5c-subunit, 0.02% SDS, 1% BSA, 0.5 mM EDTA in 20 mM HEPES buffer at pH7.5. The plates were then spun at 1000 rpm for 1 minute, and the fluorescence units of each well were recorded at λex=360 nm, λem=460 nm for 2 hours. The slopes of the initial linear range of the time course were used to calculate the velocity, and relative activities were normalized to the velocities of the DMSO control.

hu i-20S β5i-subunit = hu i-20S β5i-subunit (Homo sapiens, UniProt P20618+P28062); test: N,C-capped dipeptides IC50, Ac-ANW-AMC fluorescence assay; assay type: biochemical; conditions: for SI (selectivity index): Hu c-20S over Hu i-20S
Method: as §1

## C[C@H](NC(=O)[C@H](CC(=O)NOC(C)(C)C)NC(=O)CCc1ccccc1)C(=O)NCc1cccc2ccccc12 [DPLG-2058]
[1]
  pIC50: 8.05
Karpas 1106p cells [2]
  LD50 Karpas: 34.4 µM
Karpas 1106p cells [3]
  LD50: 34.4 µM

## C[C@H](NC(=O)[C@H](CC(=O)NOC(C)(C)C)NC(=O)CCc1ccccc1)C(=O)NCc1cccc2ncccc12 [DPLG-2073, (S)—N^4-(tert-butoxpropan-2-yl)-2-(3-phenylpropanami-do)succinamide]
Hu c-20S β5c-subunit
  pIC50: 4.88
Hu i-20S β5i-subunit
  pIC50: 5.86
  SI (selectivity index): 10
Karpas 1106p cells [3]
  LD50: >100 µM

## COC[C@H](NC(=O)[C@H](CC(=O)NOC(C)(C)C)NC(=O)c1cc(C)on1)C(=O)NCc1cccc2ccccc12 [DPLG-2144, (S)—N^4-(tert-butoxy)-N^1—((S)-3-methoxy-1-((napthalen-1-ylmethyl)amino)-1-oxopropan-2-yl)-2-(5-methylisoxazole-3-carboxamido)succinamide]
Hu c-20S β5c-subunit
  pIC50: 6.21
Hu i-20S β5i-subunit
  pIC50: 8.05
  SI (selectivity index): 69
Karpas 1106p cells [3]
  LD50: 1.47 µM

## COC[C@H](NC(=O)[C@H](CC(=O)NC1COC1)NS(C)(=O)=O)C(=O)NCc1cccc2ccccc12 [DPLG-2219, (S)—N^1—((S)-3-methoxy-1-((naphthalen-1-ylmethyl)amino)-1-oxopropan-2-yl)-2-(methylsulfonamido)-N^4-(oxetan-3-yl)succinamide]
Hu c-20S β5c-subunit
  pIC50: < 4.00
Hu i-20S β5i-subunit
  pIC50: 5.33
  SI (selectivity index): >21
Karpas 1106p cells [3]
  LD50: >100 µM

## COC[C@H](NC(=O)CCc1ccccc1)C(=O)N[C@@H](Cc1ccc(F)cc1)C(=O)NCc1cccc2ccccc12 [DPLG-2054, (S)-3-(4-fluorophenyl)-2-((S)-3-methoxy-2-(3-phenylpropanamido)propanamido)-N-(naphthalen-1-ylmethyl)propanamide]
Hu c-20S β5c-subunit
  pIC50: 4.12
Hu i-20S β5i-subunit
  pIC50: < 4.00
  SI (selectivity index): <0.8
Karpas 1106p cells [3]
  LD50: >100 µM

## CC(=O)N[C@@H](Cc1ccc(F)cc1)C(=O)NCc1cccc2ccccc12 [DPLG-2109]
Hu c-20S β5c-subunit
  pIC50: < 4.00
Hu i-20S β5i-subunit
  pIC50: 4.24
  SI (selectivity index): >2
Karpas 1106p cells [3]
  LD50: >100 µM

## COC[C@H](NC(=O)[C@H](CC(=O)NOC(C)(C)C)NC(=O)Cc1ccccc1)C(=O)NCc1cccc2ccccc12 [DPLG-2222, (S)—N^4-(tert-butoxy)-N^1—((S)-3-methoxy-1-((naphthalen-1-ylmethyl)amino)-1-oxopropan-2-yl)-2-(2-phenylacetamido)succinamide]
Hu c-20S β5c-subunit
  pIC50: 6.13
Hu i-20S β5i-subunit
  pIC50: 7.96
  SI (selectivity index): 70
Karpas 1106p cells [3]
  LD50: >100 µM

## CC(C)[C@H](NC(=O)[C@H](CC(=O)NOC(C)(C)C)NC(=O)CCc1ccccc1)C(=O)NCc1cccc2ccccc12 [DPLG-2224, (S)—N^4-(tert-butoxy)-N^1—((S)-3-methyl-1-((naphthalen-1-ylmethyl)amino)-1-oxobutan-2-yl)-2-(3-phenylpropanamido)succinamide]
Hu c-20S β5c-subunit
  pIC50: 6.64
Hu i-20S β5i-subunit
  pIC50: 8.37
  SI (selectivity index): 53
Karpas 1106p cells [3]
  LD50: >100 µM

## CC(C)(C)NC(=O)C[C@H](NC(=O)C(=O)c1c[nH]c2ccccc12)C(=O)N[C@@H](Cc1ccc(F)cc1)C(=O)NCc1cccc2ccccc12 [DPLG-3084]
Hu c-20S β5c-subunit
  pIC50: 7.43
Hu i-20S β5i-subunit
  pIC50: 8.85
  SI (selectivity index): 26
Karpas 1106p cells [3]
  LD50: 0.084 µM

## COC[C@H](NC(=O)CCc1ccccc1)C(=O)N[C@@H](C)C(=O)NCc1cccc2ccccc12 [DPLG-2048, (S)-3-methoxy-N—((S)-1-((naphthalen-1-ylmethyl)amino)-1-oxopropan-2-yl)-2-(3-phenylpropanamido)propanamide]
Hu c-20S β5c-subunit
  pIC50: 4.22
Hu i-20S β5i-subunit
  pIC50: 4.46
  SI (selectivity index): 1.7
Karpas 1106p cells [3]
  LD50: >100 µM

## Cc1ccc(S(=O)(=O)N[C@@H](CCC(=O)NC(C)(C)C)C(=O)N[C@@H](C)C(=O)NOc2ccccc2)cc1 [DPLG-3017]
Hu c-20S β5c-subunit
  pIC50: 6.22
Hu i-20S β5i-subunit
  pIC50: 7.00
  SI (selectivity index): 6
Karpas 1106p cells [3]
  LD50: 6.33 µM

## CC(C)(C)NC(=O)C[C@H](NC(=O)CCc1ccccc1)C(=O)N[C@@H](Cc1ccc(F)cc1)C(=O)NCc1ccc(-c2ccccc2)cc1 [DPLG-21049]
Hu c-20S β5c-subunit
  pIC50: 6.15
Hu i-20S β5i-subunit
  pIC50: 6.88
  SI (selectivity index): 5

## CC(C)(C)NC(=O)C[C@H](NC(=O)CCc1ccccc1)C(=O)N[C@@H](Cc1ccc(F)cc1)C(=O)NCc1cccc(-c2ccccc2)c1 [DPLG-21050]
Hu c-20S β5c-subunit
  pIC50: < 4.00
Hu i-20S β5i-subunit
  pIC50: 7.59
  SI (selectivity index): >3846

## COC[C@H](NC(=O)[C@H](CC(=O)NC(C)(C)C)NC(=O)CCc1ccccc1)C(=O)NCc1cccc2ccccc12 [DPLG-2230, (S)—N^4-(tert-butyl)-N^1—((S)-3-methoxy-1-((naphthalen-1-ylmethyl)amino)-1-oxopropan-2-yl)-2-(3-phenylpropanamido)succinamide]
Karpas 1106p cells [3]
  LD50: 1.11 µM

## CC(C)(C)NC(=O)C[C@H](NC(=O)CCc1ccccc1)C(=O)N[C@@H](Cc1ccc(F)cc1)C(=O)NCc1cccc2ccccc12 [DPLG-3066]
Hu c-20S β5c-subunit
  pIC50: < 4.00
Hu i-20S β5i-subunit
  pIC50: 8.28
  SI (selectivity index): >19000
Karpas 1106p cells [3]
  LD50: 0.198 µM

## COC[C@H](NC(=O)[C@H](CC(=O)NOC(C)(C)C)NC(=O)CCCc1ccccc1)C(=O)NCc1cccc2ccccc12 [DPLG-2223, (S) N^4-(tert-butoxy)-N^1—((S)-3methoxy-1-((naphthalen-1-ylmethyl)amino)-1-oxopropan-2-yl)-2-(4-phenylbutanamido)succinamide]
Hu c-20S β5c-subunit
  pIC50: 6.12
Hu i-20S β5i-subunit
  pIC50: 8.19
  SI (selectivity index): 118
Karpas 1106p cells [3]
  LD50: 4.47 µM

## Cc1ccc(S(=O)(=O)N[C@@H](CCC(=O)NC(C)(C)C)C(=O)N[C@@H](C)C(=O)NCc2cccc(C(F)(F)F)c2)cc1 [DPLG-3014]
Hu c-20S β5c-subunit
  pIC50: 6.38
Hu i-20S β5i-subunit
  pIC50: 7.60
  SI (selectivity index): 17
Karpas 1106p cells [3]
  LD50: 0.96 µM

## CC(C)(C)NC(=O)C[C@H](NC(=O)CCc1ccccc1)C(=O)N[C@@H](Cc1ccncc1)C(=O)NCc1cccc2ccccc12 [DPLG-21033]
Hu c-20S β5c-subunit
  pIC50: 6.36
Hu i-20S β5i-subunit
  pIC50: 8.28
  SI (selectivity index): 83

## COC[C@H](NC(=O)[C@H](CC(=O)NC(C)(C)C)NC(=O)c1cc(C)on1)C(=O)NCc1cccc2ccccc12 [DPLG-2244, (S)—N^4-(tert-butyl)-N^1((S)-3-methoxy-1-((naphthalen-1-ylmethyl)amino)-1-oxopropan-2-yl)-2-(5-methylisoxazole-3-carboxamido)succinamide]
Karpas 1106p cells [3]
  LD50: 2.20 µM

## COC[C@H](NC(=O)[C@H](CC(=O)NC1COC1)NS(=O)(=O)c1ccc(C)cc1)C(=O)NCc1cccc2ccccc12 [DPLG-2229]
Hu c-20S β5c-subunit
  pIC50: 4.71
Hu i-20S β5i-subunit
  pIC50: 7.16
  SI (selectivity index): 236
Karpas 1106p cells [3]
  LD50: >100 µM

## C[C@H](NC(=O)[C@H](CCC(=O)NC(C)(C)C)NC(=O)CCc1ccccc1)C(=O)NOc1ccccc1 [DPLG-3013]
Hu c-20S β5c-subunit
  pIC50: 6.18
Hu i-20S β5i-subunit
  pIC50: 6.64
  SI (selectivity index): 2.9
Karpas 1106p cells [3]
  LD50: 11.03 µM

## COC[C@H](NC(=O)[C@H](CC(=O)NOC(C)(C)C)NC(=O)CN1CCOCC1)C(=O)NCc1cccc2ccccc12 [DPLG-2143, (S)—N^4-(tert-butoxy)-N^1—((S)-3-methoxy-1-((naphthalen-1-ylmethyl)amino)-1-oxopropan-2-yl)-2-(2-morpholinoacetamido)succinamide]
Hu c-20S β5c-subunit
  pIC50: 4.71
Hu i-20S β5i-subunit
  pIC50: 6.60
  SI (selectivity index): 78
Karpas 1106p cells [3]
  LD50: >100 µM

## CC(C)(C)NC(=O)CC[C@H](NC(=O)CCc1ccccc1)C(=O)N[C@@H](Cc1ccc(F)cc1)C(=O)NCc1cccc2ccccc12 [DPLG-3083]
Hu c-20S β5c-subunit
  pIC50: 6.52
Hu i-20S β5i-subunit
  pIC50: 8.48
  SI (selectivity index): 90
Karpas 1106p cells [3]
  LD50: 1.20 µM

## COC[C@H](NC(=O)[C@H](CC(=O)NOC(C)(C)C)NC(=O)CCc1ccccc1)C(=O)NCc1cccc2c1NCCC2 [DPLG-2226, (S)—N^4-(tert-butoxy)-N^−1—((S)-3-methoxy-1-oxo-1-(((1,2,3,4-tetrahydroquinolin-8-yl)methyl)amino)propan-2-yl)-2-(3-phenylpropanamido)succinamide]
Hu c-20S β5c-subunit
  pIC50: 4.11
Hu i-20S β5i-subunit
  pIC50: 5.94
  SI (selectivity index): 68
Karpas 1106p cells [3]
  LD50: >100 µM

## C[C@H](NC(=O)[C@H](CC(=O)NOC(C)(C)C)NC(=O)c1cnccn1)C(=O)NCc1cccc2ccccc12 [DPLG-2098]
Karpas 1106p cells [3]
  LD50: >100 µM

## COC[C@H](NC(=O)[C@H](CC(=O)NOC(C)(C)C)NC(=O)CCc1ccccc1)C(=O)NCc1cccc(OC)c1OC [DPLG-2211]
Hu c-20S β5c-subunit
  pIC50: 5.89
Hu i-20S β5i-subunit
  pIC50: 6.61
  SI (selectivity index): 5
Karpas 1106p cells [3]
  LD50: 4.18 µM

## C[C@H](NC(=O)[C@H](CC(=O)NC(C)(C)C)NC(=O)C(=O)c1c[nH]c2ccccc12)C(=O)NCc1cccc2ccccc12 [DPLG-3053]
Karpas 1106p cells [3]
  LD50: 0.22 µM

## C[C@H](NC(=O)[C@H](CC(=O)NOC(C)(C)C)NC(=O)Cc1ccccc1)C(=O)NCc1cccc2ccccc12 [DPLG-2142, (S)—N4-(tert-butoxy)-N1-((S)-1-((naphthalen-1-ylmethyl)amino)-1-oxopropan-2-yl)-2-(2-phenylacetamido)succinamide]
Karpas 1106p cells [3]
  LD50: 9.1 µM

## C[C@H](NC(=O)[C@H](CC(=O)NOC(C)(C)C)NC(=O)CCc1ccccc1)C(=O)NCc1ccnc2ccccc12 [DPLG-2068, (S)—N^4-(tert-butoxy)-N^1—((S)-1-oxo-1-((quinolin-4-ylmethyl)amino)propan-2-yl)-2-(3-phenylpropanami-do)succinamide]
Hu c-20S β5c-subunit
  pIC50: 4.55
Hu i-20S β5i-subunit
  pIC50: 5.51
  SI (selectivity index): 9.3
Karpas 1106p cells [3]
  LD50: >100 µM

## COC[C@H](NC(=O)[C@H](CC(=O)NOC(C)(C)C)NC(=O)CCc1ccccc1)C(=O)NCc1cccc2cccnc12 [DPLG-2220]
Hu c-20S β5c-subunit
  pIC50: 5.87
Hu i-20S β5i-subunit
  pIC50: 7.15
  SI (selectivity index): 19
Karpas 1106p cells [3]
  LD50: 6.27 µM

## C[C@H](NC(=O)[C@H](CCC(=O)NC(C)(C)C)NC(=O)CCc1ccccc1)C(=O)NCCc1cccc2ccccc12 [DPLG-3012]
Hu c-20S β5c-subunit
  pIC50: 5.02
Hu i-20S β5i-subunit
  pIC50: 6.03
  SI (selectivity index): 10.4
Karpas 1106p cells [3]
  LD50: 4.16 µM
